The IC50 is the concentration needed to halve the response being measured.

The structures appear in SMILES notation. Counter-ions that a name gives are not always drawn. Like-named read-outs stand apart in the source and are kept apart here. Bounds are passed on as bounds.

Our source for the IC50 and Ki values is patent US8653100B2 (AbbVie Inc., priority 2008, dated 2014).

In one test the target is human GlyT1c (Homo sapiens (Human), UniProt P48067). Put plainly: [3H]-Glycine uptake into recombinant CHO cells expressing human GlyT1. The following applies: hGlyT1c_5_CHO cells, 200 nM [3H]-glycine. The format is cell-based. As for the experimental part: [^3H]-Glycine uptake into recombinant CHO cells expressing human GlyT1: Human GlyT1c expressing recombinant hGlyT1c—5_CHO cells were plated at 20,000 cells per well in 96 well Cytostar-T scintillation microplates (Amersham Biosciences) and cultured to sub-confluency for 24 h. […] The plates were placed in a Wallac Microbeta (PerkinElmer) and continuously counted by solid phase scintillation spectrometry during up to 3 hours. […] IC50 calculations were made by four-parametric logistic nonlinear regression analysis (GraphPad Prism) using determinations within the range of linear increase of [^3H]-glycine incorporation between 60 and 120 min.

The next test deals with human GlyT1c transporter (Homo sapiens (Human), UniProt P48067). Description: Radioligand binding assay using recombinant CHO cell membranes expressing human GlyT1. The note with it: read-out: radioligand binding Kiapp. In short, it runs like this:
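Apparent Ki values were derived by Cheng-Prusoff from one-site IC50 fits of displacement curves. Membranes from recombinant CHO cells (human GlyT1c, 50 μg/ml) were incubated 1 h at room temperature with 0.5 nM [^3H]-(R)-NPTS and test compound (1% DMSO, pH 7.5 buffer), with 10 μM Org24598 for non-specific binding, then filtered and counted.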

The mark [1] stands for this setting: radioligand [3H]-(R)-NPTS (examples 1-19, 22-52, 54-87).

human GlyT1c, sequence (P48067 whole entry): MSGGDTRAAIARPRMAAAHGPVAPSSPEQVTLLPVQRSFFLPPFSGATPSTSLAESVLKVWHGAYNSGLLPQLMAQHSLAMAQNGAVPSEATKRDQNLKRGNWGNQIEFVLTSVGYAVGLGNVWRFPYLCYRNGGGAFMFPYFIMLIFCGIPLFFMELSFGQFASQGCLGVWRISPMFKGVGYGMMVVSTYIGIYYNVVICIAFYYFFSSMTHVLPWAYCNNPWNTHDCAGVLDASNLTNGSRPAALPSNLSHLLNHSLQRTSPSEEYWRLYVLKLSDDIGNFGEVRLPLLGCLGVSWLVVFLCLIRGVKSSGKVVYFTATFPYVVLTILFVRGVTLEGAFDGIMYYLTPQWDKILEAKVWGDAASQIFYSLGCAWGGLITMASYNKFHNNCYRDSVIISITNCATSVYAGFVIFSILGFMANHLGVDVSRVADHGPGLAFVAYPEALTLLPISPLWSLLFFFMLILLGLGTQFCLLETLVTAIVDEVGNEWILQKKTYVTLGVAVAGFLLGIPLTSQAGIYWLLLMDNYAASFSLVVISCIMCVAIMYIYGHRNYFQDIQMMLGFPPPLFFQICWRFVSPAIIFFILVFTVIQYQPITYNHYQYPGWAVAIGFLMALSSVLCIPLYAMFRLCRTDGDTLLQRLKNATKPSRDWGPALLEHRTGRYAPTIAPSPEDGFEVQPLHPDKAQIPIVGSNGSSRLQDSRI
human GlyT1c transporter, sequence (P48067 whole entry): as above

In the case of `NCCS(=O)(=O)NCCOc1ccc2c(c1)C(C1(c3ccc(Cl)cc3)CCC1)NCC2` (single isomer, unassigned) [Example 152, 2-Amino-N-[2-({1-[1-(4-Chlorophenyl)cyclobutyl]-1,2,3,4-tetrahydroisoquinolin-7-yl}oxy)ethyl]ethanesulfonamide dihydrochloride], the 50% inhibitory concentration (IC50) on human GlyT1c was at most 10 µM. Further, the Ki on human GlyT1c transporter (examples 88-204, radioligand not specified by footnote) is at most 0.1 µM.
As to `O=C(NCCOc1ccc2c(c1)C(C1(c3ccc(Cl)cc3)CCC1)NCC2)c1ccc(Cl)cc1Cl` (stereo not shown) [Example 1, 2,4-Dichloro-N-(2-{1-[1-(4-chloro-phenyl)-cyclobutyl]-1,2,3,4-tetrahydro-isoquinolin-7-yloxy}-ethyl)-benzamide], at human GlyT1c, the IC50 was at most 10 µM. Besides, the Ki at human GlyT1c transporter (setting [1]) is at most 10 µM.
`CS(=O)(=O)NCCOc1ccc2c(c1)C(C1(c3ccc(Cl)cc3)CCC1)NCC2` (stereo not shown) [Example 2, N-(2-{1-[1-(4-Chloro-phenyl)-cyclobutyl]-1,2,3,4-tetrahydro-isoquinolin-7-yloxy}-ethyl)-methanesulfonamide]: the 50% inhibitory concentration (IC50) on human GlyT1c was at most 0.1 µM. Besides, on human GlyT1c transporter (setting [1]), the Ki was at most 0.1 µM.
In the case of `CCCS(=O)(=O)NCCOc1ccc2c(c1)C(C1(c3ccc(Cl)cc3)CCC1)NCC2` (stereo not shown) [Example 4, Propane-1-sulfonic acid (2-{1-[1-(4-chloro-phenyl)-cyclobutyl]-1,2,3,4-tetrahydro-isoquinolin-7-yloxy}-ethyl)-amide hydrochloride], the concentration for half-maximal inhibition (IC50) at human GlyT1c was at most 0.1 µM. Moreover, the Ki at human GlyT1c transporter (setting [1]) is at most 0.1 µM.
For `CCS(=O)(=O)NCCOc1ccc2c(c1)C(C1(c3ccc(Cl)cc3)CCC1)NCC2` (stereo not shown) [Example 7, Ethanesulfonic acid (2-{1-[1-(4-chloro-phenyl)-cyclobutyl]-1,2,3,4-tetrahydro-isoquinolin-7-yloxy}-ethyl)-amide hydrochloride], on human GlyT1c, the IC50 is at most 0.1 µM. Also, the Ki on human GlyT1c transporter (setting [1]) was at most 0.1 µM.
On to `CC(C)CS(=O)(=O)NCCOc1ccc2c(c1)C(C1(c3ccc(Cl)cc3)CCC1)NCC2` (stereo not shown) [Example 8, 2-Methyl-propane-1-sulfonic acid (2-{1-[1-(4-chloro-phenyl)-cyclobutyl]-1,2,3,4-tetrahydro-isoquinolin-7-yloxy}-ethyl)-amide hydrochloride], for which, on human GlyT1c, the IC50 is at most 0.1 µM. In addition, the Ki on human GlyT1c transporter (setting [1]) was at most 0.1 µM.
Turning to `O=S(=O)(NCCOc1ccc2c(c1)C(C1(c3ccc(Cl)cc3)CCC1)NCC2)c1ccc2ccccc2c1` (stereo not shown) [Example 9, Naphthalene-2-sulfonic acid (2-{1-[1-(4-chloro-phenyl)-cyclobutyl]-1,2,3,4-tetrahydro-isoquinolin-7-yloxy}-ethyl)-amide hydrochloride], the IC50 at human GlyT1c was at most 10 µM. On human GlyT1c transporter (setting [1]), the Ki is at most 10 µM.
For the compound `O=S(=O)(NCCOc1ccc2c(c1)C(C1(c3ccc(Cl)cc3)CCC1)NCC2)c1cccnc1` (stereo not shown) [Example 10, Pyridine-3-sulfonic acid (2-{1-[1-(4-chloro-phenyl)-cyclobutyl]-1,2,3,4-tetrahydro-isoquinolin-7-yloxy}-ethyl)-amide hydrochloride], on human GlyT1c (hydrochloride), the IC50 was at most 0.1 µM. In addition, the Ki at human GlyT1c transporter (setting [1]) was at most 0.1 µM.
As to `O=S(=O)(NCCOc1ccc2c(c1)C(C1(c3ccc(Cl)cc3)CCC1)NCC2)C(F)(F)F` (stereo not shown) [Example 11, N-(2-{1-[1-(4-Chloro-phenyl)-cyclobutyl]-1,2,3,4-tetrahydro-isoquinolin-7-yloxy}-ethyl)-C,C,C-trifluoro-methanesulfonamide], the IC50 on human GlyT1c is at most 10 µM. Further, on human GlyT1c transporter (setting [1]), the Ki was at most 10 µM.
`CS(=O)(=O)NCCOc1cc2c(cc1F)CCNC2C1(c2ccc(Cl)cc2)CCC1` (stereo not shown) [Example 12, N-(2-{1-[1-(4-Chloro-phenyl)-cyclobutyl]-6-fluoro-1,2,3,4-tetrahydro-isoquinolin-7-yloxy}-ethyl)-methanesulfonamide hydrochloride]: the half-maximal inhibitory concentration (IC50) at human GlyT1c was at most 0.1 µM. Also, the Ki on human GlyT1c transporter (setting [1]) is at most 1 µM.
Turning to `O=S(=O)(NCCOc1cc2c(cc1F)CCNC2C1(c2ccc(Cl)cc2)CCC1)c1ccccc1` (stereo not shown) [Example 13, N-(2-{1-[1-(4-Chloro-phenyl)-cyclobutyl]-6-fluoro-1,2,3,4-tetrahydro-isoquinolin-7-yloxy}-ethyl)-benzenesulfonamide hydrochloride], on human GlyT1c, the IC50 was at most 1 µM. The Ki on human GlyT1c transporter (setting [1]) is at most 1 µM.
`CCCS(=O)(=O)NCCOc1ccc2c(c1)C(C1(c3ccc(F)cc3)CCC1)N(C(=O)C(F)(F)F)CC2` (stereo not shown) [Example 70, N-[2-({1-[1-(4-Fluorophenyl)cyclobutyl]-2-(trifluoroacetyl)-1,1,3,4-tetrahydroisoquinolin-7-yl}oxy)ethyl]propane-1-sulfonamide]: the IC50 at human GlyT1c was at most 100 µM.
The same measure, in the same setting: for `CCCS(=O)(=O)NCCOc1ccc2c(c1)C(C1(c3ccc(F)cc3)CCC1)N(CC(F)(F)F)CC2` (stereo not shown) [Example 71, N-[2-({1-[1-(4-Fluorophenyl)cyclobutyl]-2-(2,2,2-trifluoroethyl)-1,2,3,4-tetrahydroisoquinolin-7-yl}oxy)ethyl]propane-1-sulfonamide hydrochloride] the value was at most 1 µM.
The same measure, in the same setting: as for `CCCS(=O)(=O)NCCOc1ccc2c(c1)C(C1(c3ccc(F)cc3)CCC1)N(N=O)CC2` (stereo not shown) [Example 74, N-[2-({1-[1-(4-Fluorophenyl)cyclobutyl]-2-nitroso-1,2,3,4-tetrahydroisoquinolin-7-yl}oxy)ethyl]propane-1-sulfonamide], the figure is at most 10 µM; as for `CCCS(=O)(=O)NCCOc1ccc2c(c1)C(C1(c3ccc(F)cc3)CCC1)N(N)CC2` (stereo not shown) [Example 75, N-[2-({2-Amino-1-[1-(4-fluorophenyl)cyclobutyl]-1,2,3,4-tetrahydroisoquinolin-7-yl}oxy)ethyl]propane-1-sulfonamide], at most 1 µM.
On to `CCCS(=O)(=O)NCCOc1ccc2c(c1)C(C1(c3ccc(Cl)cc3OC)CCC1)NCC2` (stereo not shown) [Example 76, N-[2-({1-[1-(4-Chloro-2-methoxyphenyl)cyclobutyl]-1,2,3,4-tetrahydroisoquinolin-7-yl}oxy)ethyl]propane-1-sulfonamide hydrochloride], for which, on human GlyT1c, the IC50 is at most 0.1 µM.
On the same count and under the same terms, for `CCCS(=O)(=O)NCCOc1ccc2c(c1)C(C1(c3cccc(Cl)c3)CCC1)N(CC#N)CC2` (stereo not shown) [Example 77, N-[2-({1-[1-(3-Chlorophenyl)cyclobutyl]-2-(cyanomethyl)-1,2,3,4-tetrahydroisoquinolin-7-yl}oxy)ethyl]propane-1-sulfonamide] the value was at most 1 µM.
Still for that read-out and setting: as for `CCCS(=O)(=O)NCCOc1ccc2c(c1)C(C1(c3cccc(Cl)c3)CCC1)N(CCN)CC2` (stereo not shown) [Example 78, N-[2-({2-(2-Aminoethyl)-1-[1-(3-chlorophenyl)cyclobutyl]-1,2,3,4-tetrahydroisoquinolin-7-yl}oxy)ethyl]propane-1-sulfonamide bis(trifluoroacetate)], the figure is at most 10 µM; as for `CCCS(=O)(=O)NCCOc1ccc2c(c1)C(C1(c3ccc(F)cc3)CCC1)N(c1ncc[nH]1)CC2` (stereo not shown) [Example 79, N-[2-({1-[1-(4-Fluorophenyl)cyclobutyl]-2-(1H-imidazol-2-yl)-1,2,3,4-tetrahydroisoquinolin-7-yl}oxy)ethyl]propane-1-sulfonamide], at most 1 µM; as for `CCCS(=O)(=O)NCCOc1ccc2c(c1)C(C1(c3ccc(Cl)cc3)CCC1)N(CC#N)CC2` (stereo not shown) [Example 80, N-[2-({1-[1-(4-cChlorophenyl)cyclobutyl]-2-(cyanomethyl)-1,2,3,4-tetrahydroisoquinolin-7-yl}oxy)ethyl]propane-1-sulfonamide hydrochloride], at most 0.1 µM.
`O=S(=O)(CCCOc1ccc2c(c1)C(C1(c3ccc(Cl)cc3)CCC1)NCC2)N1CCOCC1` (stereo not shown) [Example 81, 1-[1-(4-Chlorophenyl)cyclobutyl]-7-[3-(morpholin-4-ylsulfonyl)propoxy]-1,2,3,4-tetrahydroisoquinoline hydrochloride]: the IC50 at human GlyT1c is at most 10 µM.
The same measure, in the same setting: as for `CCCNS(=O)(=O)CCCOc1ccc2c(c1)C(C1(c3ccc(Cl)cc3)CCC1)NCC2` (stereo not shown) [Example 82, 3-({1-[1-(4-Chlorophenyl)cyclobutyl]-1,2,3,4-tetrahydroisoquinolin-7-yl}oxy)-N-propylpropane-1-sulfonamide hydrochloride], the figure is at most 1 µM.
Same read-out and setting: for `O=S(=O)(NCCOc1ccc2c(c1)C(C1(c3ccc(Cl)cc3)CC1)NCC2)c1cccnc1` (stereo not shown) [Example 85, N-[2-({1-[1-(4-Chlorophenyl)cyclopropyl]-1,2,3,4-tetrahydroisoquinolin-7-yl}oxy)ethyl]pyridine-3-sulfonamide] the value was at most 0.1 µM.
Consider `Cn1cc(S(=O)(=O)NCCOc2ccc3c(c2)C(C2(c4ccc(Cl)cc4)CC2)NCC3)cn1` (stereo not shown) [Example 86, N-[2-({1-[1-(4-Chlorophenyl)cyclopropyl]-1,2,3,4-tetrahydroisoquinolin-7-yl}oxy)ethyl]-1-methyl-1H-pyrazole-4-sulfonamide], for which the IC50 at human GlyT1c is at most 0.1 µM.
Still for that read-out and setting: as for `CCCS(=O)(=O)NCCOc1ccc2c(c1)C(C1(c3ccc(Cl)cc3)CC1)NCC2` (stereo not shown) [Example 87, N-[2-({1-[1-(4-Chlorophenyl)cyclopropyl]-1,2,3,4-tetrahydroisoquinolin-7-yl}oxy)ethyl]propane-1-sulfonamide hydrochloride], the figure is at most 0.1 µM; as for `NCCS(=O)(=O)NCCOc1ccc2c(c1)C(C1(c3ccc(Cl)cc3)CCC1)NCC2` (stereo not shown) [Example 154, 2-Amino-N-[2-({1-[1-(4-chlorophenyl)cyclobutyl]-1,2,3,4-tetrahydroisoquinolin-7-yl}oxy)ethyl]ethanesulfonamide], at most 1 µM.
